# Results taken from patent US7939639B2, “Functional role of adrenomedullin (AM) and the gene related product (PAMP) in human pathology and physiology” (The United States of America as represented by the …, priority 1995, dated 2011).
# “And” between values parts separate entries of the source, which are not always exact repeats. Equal entries are not always repeated. “Also recorded” adds a separate entry of the source.
# How the values were obtained:
# [1] = system: rat isolated islets; assay: cAMP content of rat isolated islets (RIA); assay type: cell-based; conditions: after addition of AM
# Protocol: (§1) Dose-dependent increase of intracellular cAMP in the islets following addition of AM. Islets from six rats were isolated following well-established protocols (Gray, et al., Diabetes 33, 1055 (1984)). Assays were performed in 24-well plates (90 islets per well). After a 45 min incubation in […] medium containing 5.6 mM glucose, a second incubation in RPMI containing 20.6 mM glucose and the proper concentration of AM and/or the antibody was performed. Supernatants from both incubations were tested by radioimmunoassay (RIA) for insulin (Amersham, Arlington Heights, Ill.). The ratio between the insulin concentration found in the high glucose supernatant and the insulin measured in the low glucose solution is represented in ordinates. After collecting the medium, the islets from the same experiments were saved for analysis of cAMP contents (Korman, et al., Cancer Res. 46, 1214 (1986)). Islets were extracted in 50% ethanol and centrifuged, and the supernatants were tested for cAMP using a RIA kit (New England Nuclear, Boston, Mass.) following manufacturer's instructions. The experiments were repeated three times and a representative example shown. Data are means±standard deviations of two wells.
# [2] = system: S. aureus; assay: Micro-/macrodilutional assays, S. aureus; assay type: cell-based, Staphylococcus aureus; conditions: microdilutional or macrodilutional assays
# Protocol: (§2) Inhibition of growth of E. coli was assessed in a microdilutional timed kill assay. (See FIG. 22) Bacteria and Candida albicans were grown overnight on trypticase soy agar (TSA) and Sobouraud dextrose agar (SDA) plates, respectively, were suspended into RPMI-1640 medium (Bio-Whittaker) and adjusted to a final concentration of 8×10^3 cfu/ml in […] in plastic microdilution trays. […] Plates were incubated at 37° C. with gentle agitation over 24 hours. At 6 hr and 24 hr time points, 10 to […] aliquots from each well were quantitatively cultured by serial 100-fold dilutions onto TSA and SDA plates.
# (§3) Data were compiled from six experiments. Macrodilution assays were performed in 12×75 mm borosilicate glass tubes. Organisms were grown and harvested, as described in Roilides, E., et al., J Infect Dis. 163:579 (1991), and adjusted to a final inoculum concentration of 8×10^3 cfu/ml in 400 μl. […] Tubes were incubated at 37° C. with gentle agitation over 24 hours. At 6 and 24 hour time points, 100 μl aliquots from each tube were quantitatively cultured by serial 100-fold dilutions onto TSA and SDA plates.
# [3] = Isoelectric point; assay type: physicochemical
# [4] = system: E. coli; assay: Microdilutional timed kill assay, E. coli; assay type: cell-based, Escherichia coli
# Protocol: Inhibition of growth of E. coli was assessed in a microdilutional timed kill assay. (See FIG. 22) Bacteria and Candida albicans were grown overnight on trypticase soy agar (TSA) and Sobouraud dextrose agar (SDA) plates, respectively, were suspended into RPMI-1640 medium (Bio-Whittaker) and adjusted to a final concentration of 8×10^3 cfu/ml in […] in plastic microdilution trays. AM-related peptides, magainins, and albumin were added in equimolar concentrations ranging from 8 μM to 300 μM. Plates were incubated at 37° C. with gentle agitation over 24 hours. At 6 hr and 24 hr time points, 10 to […] aliquots from each well were quantitatively cultured by serial 100-fold dilutions onto TSA and SDA plates.
# [5] = system: MCF-7; assay: Soft agar clonal growth assay, MCF-7; assay type: cell-based, human; conditions: exogenous AM
# [6] = system: rat isolated islets; assay: Insulin release from rat isolated islets (RIA); assay type: cell-based
# Protocol: as §1
# [7] = system: rat mast cells
# [8] = system: MCF-7; assay: MTT growth assay, MCF-7; assay type: cell-based, human
# Protocol: i. Growth Assays: MTT techniques were performed as previously described (Nakanishi, Y. F., et al., Exper. Cell Biol. 56:74-85 (1988)). In brief, a single cell suspension of 2×10^5 cells/ml (50 μl/well) is seeded into 96-well PVC plates and an appropriate concentration of MoAb-G6 and AM was added in a volume of 50 μl. The assay is performed in TIS medium (RMPI 1640 plus 10 μg/ml transferrin, 10 μg/ml insulin and 3×10^−8M sodium selenite). After 5 days growth at 37° C., 5% CO2, in a humid incubator, the dye and solubilization solutions were added from the Promega Proliferation Assay (Madison, Wis.), which is a variation of the MTT assay (Carmichael, Y. F., et al., Cancer Res. 47:943-946 (1987)). The Biorad Microplate Manager plate reader and software was used to determine the change in number of viable cells from dye reduction measured by absorbance at 570 nm.
# [9] = system: AM receptor; assay: cAMP assay (RIA), MCF-7; assay type: cell-based, human
# Protocol: k. cAMP Assays: Cyclic AMP was assayed by RIA using a kit obtained from New England Nuclear (Boston, Mass.). […] The supernatants were tested for cAMP using the RIA kit following the manufacturer's instructions.
# [10] = system: P. aeruginosa; assay: Micro-/macrodilution timed kill assay, P. aeruginosa; assay type: cell-based, Pseudomonas aeruginosa; conditions: 24 hours exposure compared with 6 hours incubation
# Protocol: as §2, §3
# [11] = system: RINm, N289, TR4, CRL 2057, CRL 1777, CRL 2055; assay: Insulin secretion of insulin-producing cell lines; assay type: cell-based; conditions: six insulin-producing cell lines
# Text: A similar mechanism has been described for amylin (R. A. Pittner et al., J. Cell. Biochem. 55S, 19 (1994)).
# [12] = system: C. albicans; assay: Micro-/macrodilutional assay, C. albicans; assay type: cell-based, Candida albicans
# Protocol: as §2, §3
smiles,measurement,setting,value
CC[C@H](C)[C@H](NC(=O)[C@H](CCC(N)=O)NC(=O)[C@H](Cc1c[nH]cn1)NC(=O)[C@H](C)NC(=O)[C@H](CC(C)C)NC(=O)[C@H](CCCCN)NC(=O)[C@H](CCC(N)=O)NC(=O)[C@@H](NC(=O)[C@@H](NC(=O)[C@@H]1CSSC[C@H](NC(=O)CNC(=O)[C@H](Cc2ccccc2)NC(=O)[C@H](CO)NC(=O)[C@H](CCCNC(=N)N)NC(=O)[C@H](CC(C)C)NC(=O)CNC(=O)[C@H](CCC(N)=O)NC(=O)[C@H](Cc2ccccc2)NC(=O)[C@H](CC(N)=O)NC(=O)[C@H](CC(N)=O)NC(=O)[C@H](CCSC)NC(=O)[C@H](CO)NC(=O)[C@H](CCC(N)=O)NC(=O)[C@H](CCCNC(=N)N)NC(=O)[C@@H](N)Cc2ccc(O)cc2)C(=O)N[C@@H](CCCNC(=N)N)C(=O)N[C@@H](Cc2ccccc2)C(=O)NCC(=O)N[C@@H]([C@@H](C)O)C(=O)N1)[C@@H](C)O)C(C)C)C(=O)N[C@@H](Cc1ccc(O)cc1)C(=O)N[C@@H](CCC(N)=O)C(=O)N[C@@H](Cc1ccccc1)C(=O)N[C@H](C(=O)N[C@@H](CC(=O)O)C(=O)N[C@@H](CCCCN)C(=O)N[C@@H](CC(=O)O)C(=O)N[C@@H](CCCCN)C(=O)N[C@@H](CC(=O)O)C(=O)N[C@@H](CC(N)=O)C(=O)N[C@H](C(=O)N[C@@H](C)C(=O)N1CCC[C@H]1C(=O)N[C@@H](CCCNC(=N)N)C(=O)N[C@@H](CO)C(=O)N[C@@H](CCCCN)C(=O)N[C@H](C(=O)N[C@@H](CO)C(=O)N1CCC[C@H]1C(=O)N[C@@H](CCC(N)=O)C(=O)NCC(=O)N[C@@H](Cc1ccc(O)cc1)C(N)=O)[C@@H](C)CC)C(C)C)[C@@H](C)O [AM],cAMP levels in the islets,[1],Elevating levels of cAMP; also recorded: cAMP levels increased
same,growth suppressive activity against S. aureus,[2],ineffective; also recorded: no apparent growth suppressive activity
same,isoelectric point,[3],9.7 and 10.2
same,activity against E. coli,[4]; after 6 hours of incubation,activity
same,"growth inhibitory activity against E. coli, comparative","[4]; microdilution, 6 hours, FIG. 22",higher growth inhibitory activity than albumin
same,clonal growth in soft agar,[5],elevated clonal growth
same,inhibition of insulin secretion,"[6]; AM concentration of 1 μM, freshly isolated islets",78%
same,effect of AM on insulin secretion,[6]; isolated islets,inhibits insulin secretion in a dose-dependent manner; also recorded: dose-dependent reduction of insulin secretion; also recorded: reduces insulin secretion
same,EC50,[7],7.9 ± 3.9 µM
same,growth suppression by synthetic AM alone,[8]; AM 10 μM (FIG. 12B),≈ 10%
same,reversal of MoAb-G6 growth inhibition by exogenous AM,[8]; MCF-7,abrogated
same,effect on cAMP,[9]; MCF-7,activated; also recorded: rapid increase in cellular cAMP
same,maximum elevation of cellular cAMP,[9]; relative to normal control,three times that of the normal control
same,"antimicrobial activity against P. aeruginosa, 24 hours versus 6 hours",[10],greater antimicrobial activity
same,change in insulin secretion rate,[11],no change in insulin secretion rate; also recorded: not directly affected
same,antimicrobial effect against C. albicans,[12],73%±8.1
same,activity against C. albicans,[12]; after 6 hours of incubation,activity
